Laboratory results as given in patent publication US5952339A, “Pharmaceutical compositions and methods of using nicotinic antagonists for treating a condition or disorder characterized by alteration in normal neurotransmitter release” (priority 1998, dated 1999).
Read-outs that look alike come from different tables or passages of the source.

Experiments:
CNS nicotinic receptors [1] = biological target: T1, CNS nicotinic receptors (Rattus norvegicus, UniProt P09483+P12390); test: Isotopic rubidium ion release; assay type: biochemical; details: for Emax: read-out: Emax (rubidium ion release)
T1 construct: from tissue
T1 sequence (P09483 31-630): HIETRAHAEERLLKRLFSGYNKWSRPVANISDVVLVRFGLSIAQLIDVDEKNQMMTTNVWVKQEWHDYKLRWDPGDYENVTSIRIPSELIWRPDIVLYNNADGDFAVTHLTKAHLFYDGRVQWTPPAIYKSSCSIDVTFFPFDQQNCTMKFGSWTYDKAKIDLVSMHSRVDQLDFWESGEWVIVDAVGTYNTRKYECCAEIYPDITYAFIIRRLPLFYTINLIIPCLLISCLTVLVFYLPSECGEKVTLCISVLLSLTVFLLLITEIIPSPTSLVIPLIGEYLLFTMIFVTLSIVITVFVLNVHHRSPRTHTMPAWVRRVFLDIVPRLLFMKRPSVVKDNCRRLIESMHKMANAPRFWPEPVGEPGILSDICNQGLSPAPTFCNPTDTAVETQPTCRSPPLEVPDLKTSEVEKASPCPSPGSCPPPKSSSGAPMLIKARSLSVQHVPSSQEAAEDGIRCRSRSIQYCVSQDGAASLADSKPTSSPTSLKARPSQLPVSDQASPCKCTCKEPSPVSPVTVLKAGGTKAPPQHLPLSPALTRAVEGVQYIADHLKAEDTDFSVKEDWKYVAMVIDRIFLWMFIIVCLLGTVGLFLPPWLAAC
T1 sequence (P12390 25-500): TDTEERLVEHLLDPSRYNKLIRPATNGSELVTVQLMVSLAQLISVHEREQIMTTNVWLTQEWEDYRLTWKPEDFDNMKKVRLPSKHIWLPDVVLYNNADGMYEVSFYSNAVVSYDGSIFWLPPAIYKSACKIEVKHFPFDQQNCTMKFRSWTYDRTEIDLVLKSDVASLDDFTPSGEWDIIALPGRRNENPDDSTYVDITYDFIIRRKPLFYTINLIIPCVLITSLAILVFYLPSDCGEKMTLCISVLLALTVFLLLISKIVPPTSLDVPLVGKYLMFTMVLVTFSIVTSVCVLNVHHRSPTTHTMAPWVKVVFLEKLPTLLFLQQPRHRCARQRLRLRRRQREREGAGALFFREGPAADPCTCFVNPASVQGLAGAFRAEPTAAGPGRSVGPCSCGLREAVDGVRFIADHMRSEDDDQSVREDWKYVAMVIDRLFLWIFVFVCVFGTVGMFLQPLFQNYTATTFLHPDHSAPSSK
Experimental: Isotopic rubidium release was measured using the techniques described in Bencherif et al., JPET, 279: 1413-1421 (1996). Reported EC50 values are expressed in nM, and Emax values represent the amount of rubidium ion released relative to 300 uM tetranmethylammonium ion, on a percentage basis.
(§1) Reported IC50 values are expressed in nM and represent the concentration resulting in 50% inhibition of agonist induced receptor activation. Emax values represent the amount released relative to (S)-(-)-nicotine on a percentage basis.

CNS nicotinic receptors [2] = biological target: T1, CNS nicotinic receptors; test: Determination of binding to relevant receptor sites
Experimental: Determination of Binding to Relevant Receptor Sites
Binding of the compounds to relevant receptor sites was determined in accordance with the techniques described in U.S. Pat. No. 5,597,919 to Dull et al. Inhibition constants (Ki values), reported in nM, were calculated from the IC50 values using the method of Cheng et al., Biochem, Pharmacol. 22:3099 (1973).

dopamine release = test: Determination of receptor activation/inhibition: dopamine release; assay type: biochemical; details: for Emax (dopamine release): amount released relative to (S)-(-)-nicotine or TMA
Experimental: Determination of Receptor Activation/Inhibition and Dopamine Release
Dopamine release was measured using the techniques described in U.S. Pat. No. 5,597,919 to Dull et al. Release is expressed as a percentage of release obtained with a concentration of (S)-(-)-nicotine resulting in maximal effects. Reported EC50 values are expressed in nM, and Emax values represent the amount released relative to (S)-(-)-nicotine or tetramethylammonium ion (TMA), on a percentage basis.
as §1

muscle-type receptors = biological target: T2, muscle-type receptors (Homo sapiens, UniProt P02708+P07510+Q07001); test: Determination of interaction with muscle receptors; assay type: biochemical; details: percentage of the maximal activation induced by (S)-(-)-nicotine
T2 construct: endogenous in cells
T2 sequence (P02708 21-457): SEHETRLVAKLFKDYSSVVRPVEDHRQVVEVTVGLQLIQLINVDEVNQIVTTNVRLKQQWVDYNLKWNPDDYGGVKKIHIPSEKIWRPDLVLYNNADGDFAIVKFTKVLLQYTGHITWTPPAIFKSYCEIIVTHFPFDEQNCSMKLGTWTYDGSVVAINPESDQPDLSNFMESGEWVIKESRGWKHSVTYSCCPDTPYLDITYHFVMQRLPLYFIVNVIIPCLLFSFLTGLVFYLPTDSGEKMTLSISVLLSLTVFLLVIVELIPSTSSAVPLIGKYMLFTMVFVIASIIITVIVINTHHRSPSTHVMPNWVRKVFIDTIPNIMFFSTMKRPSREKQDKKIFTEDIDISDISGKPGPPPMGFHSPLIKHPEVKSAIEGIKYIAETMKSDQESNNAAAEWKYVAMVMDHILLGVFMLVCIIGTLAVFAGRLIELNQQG
T2 sequence (P11230 24-501, further chain): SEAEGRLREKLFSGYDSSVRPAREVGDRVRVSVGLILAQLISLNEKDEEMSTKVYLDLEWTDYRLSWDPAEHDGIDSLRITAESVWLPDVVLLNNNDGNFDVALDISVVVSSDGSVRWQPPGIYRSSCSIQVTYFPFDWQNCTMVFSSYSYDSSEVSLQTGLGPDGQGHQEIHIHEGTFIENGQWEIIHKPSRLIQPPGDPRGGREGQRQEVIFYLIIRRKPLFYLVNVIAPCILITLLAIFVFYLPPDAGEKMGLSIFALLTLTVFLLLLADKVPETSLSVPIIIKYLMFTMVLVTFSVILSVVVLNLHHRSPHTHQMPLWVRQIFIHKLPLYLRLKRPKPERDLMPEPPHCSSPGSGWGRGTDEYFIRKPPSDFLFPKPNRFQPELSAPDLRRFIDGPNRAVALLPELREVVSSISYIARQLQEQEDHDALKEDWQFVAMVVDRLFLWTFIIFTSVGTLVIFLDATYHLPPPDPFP
T2 sequence (P07510 23-517): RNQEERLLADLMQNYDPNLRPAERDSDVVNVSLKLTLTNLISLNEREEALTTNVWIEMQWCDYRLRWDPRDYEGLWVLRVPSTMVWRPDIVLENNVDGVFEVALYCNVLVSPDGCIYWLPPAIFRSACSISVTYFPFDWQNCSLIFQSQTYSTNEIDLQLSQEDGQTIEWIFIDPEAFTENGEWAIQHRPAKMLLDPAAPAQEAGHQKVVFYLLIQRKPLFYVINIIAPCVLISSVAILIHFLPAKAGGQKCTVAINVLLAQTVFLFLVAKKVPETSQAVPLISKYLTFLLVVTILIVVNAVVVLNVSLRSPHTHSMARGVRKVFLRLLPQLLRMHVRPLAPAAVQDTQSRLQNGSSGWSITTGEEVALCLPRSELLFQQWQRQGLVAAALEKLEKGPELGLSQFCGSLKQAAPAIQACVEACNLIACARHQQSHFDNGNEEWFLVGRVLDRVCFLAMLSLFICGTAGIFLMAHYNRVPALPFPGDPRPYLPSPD
T2 sequence (Q07001 22-517): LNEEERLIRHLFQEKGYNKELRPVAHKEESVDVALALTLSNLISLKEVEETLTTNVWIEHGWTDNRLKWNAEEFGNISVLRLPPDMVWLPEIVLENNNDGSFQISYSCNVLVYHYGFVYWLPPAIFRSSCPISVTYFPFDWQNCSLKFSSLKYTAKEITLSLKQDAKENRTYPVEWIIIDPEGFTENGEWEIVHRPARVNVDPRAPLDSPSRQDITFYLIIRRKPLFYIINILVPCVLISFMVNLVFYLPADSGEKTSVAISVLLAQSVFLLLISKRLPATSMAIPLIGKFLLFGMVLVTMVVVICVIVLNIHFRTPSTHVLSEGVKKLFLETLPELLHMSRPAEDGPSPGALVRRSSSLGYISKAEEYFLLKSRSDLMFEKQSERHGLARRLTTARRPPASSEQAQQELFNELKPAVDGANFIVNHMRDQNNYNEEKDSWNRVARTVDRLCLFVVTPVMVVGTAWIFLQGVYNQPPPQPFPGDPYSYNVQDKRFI
Experimental: Determination of Interaction with Muscle Receptors
(§2) The determination of the interaction of the compounds with muscle receptors was carried out in accordance with the techniques described in U.S. Pat. No. 5,597,919 to Dull et al. The maximal activation for individual compounds (Emax) was determined as a percentage of the maximal activation induced by (S)-(-)-nicotine. Reported Emax values represent the amount released relative to (S)-(-)-nicotine on a percentage basis.

ganglia-type receptors = biological target: T3, ganglia-type receptors (Rattus norvegicus, UniProt P04757+P12392); test: Determination of interaction with ganglion receptors; assay type: biochemical; details: percentage of the maximal activation induced by (S)-(-)-nicotine
T3 construct: endogenous in cells
T3 sequence (P04757 26-499): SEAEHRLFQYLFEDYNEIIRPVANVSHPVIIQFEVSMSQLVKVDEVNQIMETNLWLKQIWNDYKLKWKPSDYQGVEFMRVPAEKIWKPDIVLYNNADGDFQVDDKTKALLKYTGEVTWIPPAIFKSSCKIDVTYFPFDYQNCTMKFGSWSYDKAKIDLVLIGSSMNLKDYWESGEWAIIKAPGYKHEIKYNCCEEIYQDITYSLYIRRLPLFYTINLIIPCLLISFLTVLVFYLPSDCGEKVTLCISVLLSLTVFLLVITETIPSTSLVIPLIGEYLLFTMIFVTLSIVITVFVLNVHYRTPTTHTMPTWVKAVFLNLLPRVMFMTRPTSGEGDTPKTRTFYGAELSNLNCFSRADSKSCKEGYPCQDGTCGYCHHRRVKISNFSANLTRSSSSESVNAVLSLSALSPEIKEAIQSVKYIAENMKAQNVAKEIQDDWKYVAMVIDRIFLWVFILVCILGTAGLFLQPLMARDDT
T3 sequence (P12392 21-495): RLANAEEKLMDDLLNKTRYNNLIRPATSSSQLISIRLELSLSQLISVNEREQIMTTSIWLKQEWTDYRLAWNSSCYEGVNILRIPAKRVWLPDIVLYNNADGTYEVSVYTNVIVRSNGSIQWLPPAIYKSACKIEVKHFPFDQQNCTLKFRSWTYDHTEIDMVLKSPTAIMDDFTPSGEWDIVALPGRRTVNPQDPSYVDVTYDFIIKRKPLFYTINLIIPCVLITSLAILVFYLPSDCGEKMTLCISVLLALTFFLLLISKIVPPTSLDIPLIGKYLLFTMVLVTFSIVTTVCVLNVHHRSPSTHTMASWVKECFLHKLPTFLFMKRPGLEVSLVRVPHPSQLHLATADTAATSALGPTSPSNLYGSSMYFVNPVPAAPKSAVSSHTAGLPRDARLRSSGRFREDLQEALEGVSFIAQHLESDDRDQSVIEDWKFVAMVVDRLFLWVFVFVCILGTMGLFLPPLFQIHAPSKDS
Experimental: Determination of Interaction with Ganglion Receptors
as §2, with “ganglionic” for “muscle”

[3] = read-out: EC50 (rubidium ion release)
[4] = calculated from IC50 values using the method of Cheng et al., read-out: Ki

`Brc1cncc(C2C3CC4CC(C3)CN2C4)c1` (stereo not drawn) [Sample No. 2, 1-aza-2-[5-bromo(3-pyridyl)]tricyclo[3.3.1.1^3,7]decane] gave an EC50 (CNS nicotinic receptors [1]; [3]) greater than 100000 nM, an Emax (CNS nicotinic receptors [1]) of 0% and a Ki (CNS nicotinic receptors [2]) of 2 nM. For the same compound, the “Emax (dopamine release)” value (dopamine release) was 0%, the Emax (muscle-type receptors) was 32% and the Emax (ganglia-type receptors) was 50%.

`c1cncc(C2C3CC4CC(C3)CN2C4)c1` (stereo not drawn) [Sample No. 1, 1-aza-2-(3-pyridyl)-tricyclo[3.3.1.1^3,7]decane] was tested, and the Ki (CNS nicotinic receptors [2]; [4]) was 15 nM, the “Emax (dopamine release)” value (dopamine release) was 0% and the Emax (muscle-type receptors) was 21%. It also gave an Emax (ganglia-type receptors) of 27%.

`Cl.Cl.Cl.Nc1cncc(C2C3CC4CC(C3)CN2C4)c1` (stereo not drawn) [Sample No. 3, 1-aza-2-[5-amino-(3-pyridyl)]tricyclo[3.3.1.1^3,7]decane trihydrochloride] showed an EC50 (CNS nicotinic receptors [1]) greater than 100000 nM, an Emax (CNS nicotinic receptors [1]) of 0% and a Ki (CNS nicotinic receptors [2]; [4]) of 44 nM. The “Emax (dopamine release)” value (dopamine release) was 0%, the Emax (muscle-type receptors) was 75% and the Emax (ganglia-type receptors) was 17%.

With `CC(C)Oc1cncc(C2C3CC4CC(C3)CN2C4)c1` (stereo not drawn) [Sample No. 5, 1-aza-2-[5-isopropoxy-(3-pyridyl)]tricyclo[3.3.1.1^3,7]decane] the EC50 (CNS nicotinic receptors [1]; [3]) was greater than 100000 nM, the Emax (CNS nicotinic receptors [1]) was 0% and the Ki (CNS nicotinic receptors [2]) was 24 nM. For the same compound, the “Emax (dopamine release)” value (dopamine release) was 0%, the Emax (muscle-type receptors) was 114% and the Emax (ganglia-type receptors) was 7%.

For `CCOc1cncc(C2C3CC4CC(C3)CN2C4)c1` (stereo not drawn) [Sample No. 4, 1-aza-2-[5-ethoxy-(3-pyridyl)]-tricyclo-[3.3.1.1^3,7]decane], the IC50 (CNS nicotinic receptors [1]) was 630 nM, the EC50 (CNS nicotinic receptors [1]; [3]) was greater than 100000 nM and the Emax (CNS nicotinic receptors [1]) was 0%. For the same compound, the Ki (CNS nicotinic receptors [2]) was 1 nM, the IC50 (dopamine release; 50% inhibition of agonist induced receptor activation) was 846 nM and the “Emax (dopamine release)” value (dopamine release) was 0%. The Emax (muscle-type receptors) was 22% and the Emax (ganglia-type receptors) was 0%.
